Laboratory results taken from patent publication US20250136617A1 (The Regents of the University of Colorado, A Body Corporate, priority 2022, published 2025).
Entries after “also recorded” stand apart in the source; their conditions may differ. Like-named read-outs stand apart in the source and are kept apart here.

Key:
CXCR4 [1] = molecular target: T1, CXCR4 (Homo sapiens, UniProt P61073); experiment: primary 1536 w β-arrestin recruitment assay (FRET, β-lactamase reporter) in U2OS cells overexpressing CXCR4; format: cell-based; parameters: host or cells: U2OS
T1 sequence (P61073 whole entry): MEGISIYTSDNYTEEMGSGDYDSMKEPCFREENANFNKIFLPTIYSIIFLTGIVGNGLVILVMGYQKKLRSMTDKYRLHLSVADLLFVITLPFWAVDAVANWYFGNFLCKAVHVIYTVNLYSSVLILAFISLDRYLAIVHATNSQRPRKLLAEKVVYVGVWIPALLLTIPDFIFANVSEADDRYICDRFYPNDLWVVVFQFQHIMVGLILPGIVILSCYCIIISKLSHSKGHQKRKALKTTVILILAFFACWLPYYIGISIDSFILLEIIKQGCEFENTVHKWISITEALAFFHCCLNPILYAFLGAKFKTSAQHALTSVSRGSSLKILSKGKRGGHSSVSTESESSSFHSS
Experimental: In an effort to identify CXCR4 activators from the NIH Molecular Library Small Molecule Repository (MLSMR), a primary screening assay was developed to measure β-arrestin recruitment to the activated G-protein coupled receptor by Florescence Resonance Energy Transfer (FRET) in U2OS cells overexpressing the CXCR4 receptor engineered with a β-lactamase (bla) reporter system (Invitrogen cat #K1779). CXCR4-bla cells plated in 1536 w were stimulated in the presence of 10 uM compound concentration. […] Using this approach, 370,620 compounds from the NIH MLSMR were successfully screened and 303 hits were identified (hit rate=0.08%; Z′=0.83). […] These compounds were graded according to activity and structure resulting in 86 compounds that met criteria as potential CXCR4 agonists for further characterization.
Chemical stability, synthetic tractability, solubility and complete dose response and potency criteria led to the prioritization of the 5-aryl-2-cyclopropyl oxazole scaffold, represented by primary hit Compound 2 (Table 1). Early structure-activity relationship was established around the 5-aryl-2-cyclopropyl oxazole core with commercially available analogs with diverse substituents in the sulfonanilide ring of the scaffold. […] Keeping the 2-OMe substituent constant a small set of electron withdrawing and electron rich substituents at the 5-position of the anilide ring were screened (entries 16-19).

[2] = tested on: CEM-CCRF human lymphoblast cells; experiment: Transwell migration assay in CEM-CCRF lymphoblasts; format: cell-based
Outline: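 CEM-CCRF cells at 5.0×10^5 cells/mL in RPMI 1640, preincubated 1 h at 37 °C, 5% CO2, then allowed to migrate in a 96-well transwell system for 3 h at 37 °C. Migrated cells in the receiver tray quantified by ATPLite luminescence.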

[3] = tested on: diabetic wounds in Db mice; experiment: Diabetic wound healing, full-thickness excisional 8 mm wounds in Db mice; format: in vivo; settings: for reduction of wound closure time vs PBS: 10 μM; for wound surface area vs PBS: post-injury day 6
Experimental: The ability of compound UCUF-728 to improve diabetic wound healing in vivo was examined. Full-thickness excisional 8 mm wounds were created in Db mice and were immediately treated with 10 μM UCUF-728 or phosphate-buffered saline (PBS) control. Wound healing over the course of 22 days was monitored. Initial wound size was calculated immediately after wounding, and wound closure was assessed over time as the percentage of initial wound area. […] The effect of UCUF-728 treatment on angiogenesis was assessed using immunohistochemistry for endothelial marker CD31. Representative photos of immunoperoxidase staining for CD31 at 7 days in diabetic wounds treated with PBS or UCUF-728 are shown in FIG. 8A.
The ability of UCUF-965, a thiadiazine compound, to improve diabetic wound healing in vivo was examined. Full-thickness excisional 8 mm wounds were created in Db mice and were immediately treated with 10 μM UCUF-965 or PBS control. Wound healing over the course of 22 days was monitored. Initial wound size was calculated immediately after wounding, and wound closure was assessed over time as the percentage of initial wound area. FIG. 13 indicated the wound healing effect of UCUF-965 topical administration on excision wound model on different days after injury. […] UCUF-965-treated diabetic wounds closed around 14 days after treatment whereas control PBS-treated wounds healed at day 22. UCUF-965 is a promising positive allosteric modulator of CXCR4 signaling to treat diabetic would healing.
All animal experiments were approved by the Institutional Animal Care and Use Committee at the University of Colorado Denver—Anschutz Medical Campus, and experimental protocols followed the guidelines described in the NIH Guide for the Care and Use of Laboratory Animals. In these experiments, 10 week old, female, genetically diabetic C57BKS.Cg-m/Leprdb/J (Db) mice and heterozygous, non-diabetic (non-Db), age-matched female controls from the Jackson Laboratory (Bar Harbor, ME) were used. Mice were anesthetized with inhaled isoflurane. Each mouse was shaved and depilated before wounding. The dorsal skin was swabbed with alcohol and Betadine (Purdue Pharma, Stamford, CT). Each mouse received a single, full-thickness dorsal wound (including panniculus carnosum) with an 8-mm punch biopsy (Miltex Inc, York, PA). After wounding, a Hamilton syringe was used to deliver 50 μL of either 10 uM test compound or PBS, as a control. 10 μL were injected intradermally at 12, 3, 6 and 9 o'clock and at the wound base. […] Mice pictures were taken every other day, wound size was analyzed by Image J. A full-thickness skin sample, centered on the wound, was harvested 3 and 7 days after surgery (n=5 per timepoint).

CXCR4 [4] = molecular target: T1, CXCR4; experiment: Calcium flux (Fluo-4) in CEM-CCRF cells; format: cell-based; parameters: host or cells: CEM-CCRF; settings: 10 μM; listed as UCUF-965
Experimental: Fluo-4 Direct Calcium Assay Kit (Invitrogen; F10472) reagents were prepared according to the supplier guidelines at 2× concentration and allowed to equilibrate to room temperature in the dark. […] Following incubation, 25 μL of cell suspension loaded with Fluo-4 Direct Calcium reagent was dispensed into a 384-well black wall clear-bottom plate (Corning; 3764). […] Calcium flux responses were measured on the BMG LABTECH CLARIOstar Plus (BMG LABTECH Inc., Cary, NC) using the CLARIOstar Plus supplier excitation and emission settings for Fluo-4 (Calcium Saturated). Measurements were conducted using a bottom-read kinetic well-mode with measurements occurring at 0.5 sec intervals for 150 sec and injection occurring at 10.0 sec.

EC50 (CXCR4 [1]; 1536 w screening platform) [µM]	CXCR4 b-arrestin Emax (%) (CXCR4 [1]; 1536 w, normalized to SDF-1α)	SMILES	migration activity (words) ([2]; listed as UCUF-728)	reduction of wound closure time vs PBS [3] [%]	wound surface area vs PBS [3]	fold lower potency in migration vs β-arrestin recruitment assay [2] [fold]	migration activity (words) [2]	EC50 ([2]; Homo sapiens, read-out: Migration log EC50, log value, n=3 (converted)) [µM]	Migration CEM Emax (%) ([2]; listed as UCUF-965)	EC50 ([2]; read-out: Migration CEM EC50, listed as UCUF-965) [µM]	calcium flux activity (CXCR4 [4])
1.1	60	COc1ccc(OC)c(NS(=O)(=O)c2ccc(-c3cnc(C4CC4)o3)cc2)c1 [Oxazole Entry 19, 4-(2-Cyclopropyloxazol-5-yl)-N-(2,5-dimethoxyphenyl)benzenesulfonamide]	induced migration with similar EC50 and Emax as the B-arrestin recruitment activity; also recorded: SDF-1α-mediated response was potentiated; also recorded: dose-dependent partial activation of CEM-CCRF cell migration	36	decrease in wound surface area	–	–	–	–	–	–
–	–	CCOc1ccccc1-c1nnc2n1N=C(c1ccc(N3CCCC3)cc1)CS2 [Thiadiazine Entry 23, 3-(2-ethoxyphenyl)-6-(4-(pyrrolidin-1-yl)phenyl)-7H-[1,2,4]triazolo[3,4-b][1,3,4]thiadiazine]	–	36	decrease in wound surface area	10	partial activator of CXCR4-mediated cell migration	0.398	31	0.4	induce CXCR4-mediated calcium flux
